# System: p5xGTTI-Luc+ luciferase reporter in BHK 21 cells
# Experiment: Repression of luciferase reporter activated by constitutive GAL4-VP16, transient transfection of BHK 21 cells (Example 2)
# Type: cell-based, hamster
# Conditions: 100 ng/ml dox
# Description: Baby hamster kidney 21 (BHK 21) cells were cultivated in DMEM (Gibco-BRL) supplemented with 10% FCS (Gibco-BRL). For transfectiors, cells were seeded in 24 well plates at about 40% confluency and allowed to attach to the surface. After washing with PBS, cells were exposed to the transfection mix for 4 hours. Thereafter, the transfection mix was replaced by medium which contained, where indicated, 100 ng/ml doxycycline hydrochloride (Sigma #D9891). Generally, medium was replaced every 24 hours and cells were harvested 48 hours post-transfection.
# For luciferase and β-galactosidase measurements, cell extracts were prepared as follows. […] After a delay of 2 sec light emission was measured for 2 sec.
# Colorimetric determination of β-galactosidase activity was performed by adding 150 μl CPRG buffer (60 mM Na2HPO4 7 H2O, 40 mM NaH2PO4, 10 mM KCl, 1 mM MgSO4, 50 mM β-mercaptoethanol) and 20 μl CPRG solution (Boehringer Mannheim #884308, 4 mg/ml in H2O) to the remaining 30 μl cell extract in the 96 well plate. […] Absorbance was measured at 575 nm in a plate reader (Spectramax 340, Molecular Devices) and samples were normalized to wells in which lysis buffer was assayed.
# Relative light units were calculated by normalizing luciferase for β-galactosidase activity. […]
smiles,measurement,value
"C[C@H]1c2cccc(O)c2C(=O)C2=C(O)[C@]3(O)C(=O)C(C(N)=O)=C(O)[C@@H](N(C)C)[C@@H]3[C@@H](O)[C@@H]21.Cl [dox, doxycycline hydrochloride]",effect of addition of the dox ligand on repression,abolished the repression

# From patent US6340741B1, “Potent genetic switch allowing regulated gene expression in eukaryotic cells” (University of Lausanne, priority 1998, dated 2002)
